Data set [1] deals with Trypanosoma cruzi. Nature of the data set: Anti-trypanosomal activity against Trypanosoma cruzi Silvio X10 cl1 epimastigote forms assessed as inhibition of parasite growth after 72 hrs by microplate reader based assay. The class given is functional, organism-based. The conditions noted are these: for pIC50: Trypanosoma cruzi, Silvio X10 cl1, 72 h.
Data set [2] in a line: Selectivity index, ratio of IC50 for human LL24 cells to IC50 for Trypanosoma cruzi Y epimastigote forms. The format is toxicity, cell-based. The settings on record: read-out: Ratio IC50.
Data set [3] in a line: Cytotoxicity against human LL24 cells assessed as inhibition of cell growth after 24 hrs by MTT assay. The format is cell-based. The conditions noted are these: LL24, 24 h.
Data set [4] relates to Trypanosoma cruzi. Nature of the data set: Anti-trypanosomal activity against Trypanosoma cruzi Y epimastigote forms assessed as inhibition of parasite growth after 72 hrs by microplate reader based assay. The format is functional, organism-based. The settings on record: for pIC50: Trypanosoma cruzi, Y, 72 h.
A short description of data set [5]: Selectivity index, ratio of IC50 for human LL24 cells to IC50 for Trypanosoma cruzi Bug 2149 cl10. The class given is toxicity, cell-based. The conditions noted are these: read-out: Ratio IC50.
A short description of data set [6]: Selectivity index, ratio of IC50 for human LL24 cells to IC50 for Trypanosoma cruzi Silvio X10 cl1 epimastigote forms. The settings on record: read-out: Ratio IC50. The class given is toxicity, cell-based.
Data set [7] has as its system Trypanosoma cruzi. Kind of data set: Anti-trypanosomal activity against Trypanosoma cruzi Bug 2149 cl10 epimastigote forms assessed as inhibition of parasite growth after 72 hrs by microplate reader based assay. The format is functional, organism-based. The settings on record: for pIC50: Trypanosoma cruzi, Bug 2149 cl10, CL1-0, 72 h.

Structures are written as SMILES. pIC50: −log10 of the molar value. Some results are limits rather than exact numbers.

Consider `CC(C)(C)c1ccc(C(=O)N/N=C/c2ccc([N+](=O)[O-])o2)cc1`, for which the log1/IC50 was determined as 4.86 in data set [1], 5.03 in data set [4] and 4.86 in data set [7]. Further, the negative-log IC50 (pIC50) in data set [1] was 4.86; in data set [3], < 3.70; in data set [4] it was 5.03; in data set [7], 4.86. Besides, the results for the selectivity ratio in data set [2], in data set [5] and in data set [6] were > 21, > 15 and > 15, respectively.
`CCCOc1ccc(C(=O)N/N=C/c2ccc([N+](=O)[O-])o2)cc1`: the log1/IC50 in data set [1] is 4.89; in data set [4] it was 5.13; in data set [7], 5.01. Further, the pIC50 in data set [1] is 4.89; in data set [3], < 3.70; in data set [4], 5.13; in data set [7] it was 5.01. In addition, the selectivity ratio in data set [2] is > 27; in data set [5], > 21; in data set [6], > 16.
On to `CCCCOc1ccc(C(=O)N/N=C/c2ccc([N+](=O)[O-])o2)cc1`, for which the log1/IC50 in data set [1] was found to be 5.29; in data set [4], 5.46; in data set [7], 5.37. For the same compound, the pIC50 is 5.29 in data set [1], < 3.70 in data set [3], 5.46 in data set [4] and 5.37 in data set [7]. For the same compound, the selectivity ratio is > 58 in data set [2], > 47 in data set [5] and > 39 in data set [6].
On to `CCCCNc1ccc(C(=O)N/N=C/c2ccc([N+](=O)[O-])o2)cc1`, for which the log1/IC50 amounted to 5.36 in data set [1], 5.51 in data set [4] and 5.37 in data set [7]. For the same compound, the pIC50 was 5.36 in data set [1], 4.33 in data set [3], 5.47 in data set [4] and 5.37 in data set [7]. Moreover, the results for the selectivity ratio in data set [2], in data set [5] and in data set [6] were 14, 11 and 11, respectively.
Turning to `O=C(N/N=C/c1ccc([N+](=O)[O-])o1)c1ccc(-c2ccccc2)cc1`, the log1/IC50 in data set [1] was 5.5; in data set [4], 5.93; in data set [7] it was 5.74. The pIC50 in data set [1] was 5.50; in data set [3], < 3.70; in data set [4], 5.93; in data set [7], 5.74. Also, the selectivity ratio is > 176 in data set [2], > 110 in data set [5] and > 63 in data set [6].
Turning to `O=C(N/N=C/c1ccc([N+](=O)[O-])o1)c1ccccc1Oc1ccccc1`, the log1/IC50 in data set [1] worked out at 4.91; in data set [4] it was 5.11; in data set [7], 4.91. Also, the negative logarithm of the IC50 (pIC50) in data set [1] is 4.91; in data set [3], < 3.70; in data set [4] it was 5.11; in data set [7] it was 4.91. The selectivity ratio in data set [2] is > 26; in data set [5] it was > 16; in data set [6], > 16.
Take `CC1CS(=O)(=O)CCN1/N=C/c1ccc([N+](=O)[O-])o1` (centres undefined) [NIFURTIMOX]: the values for the log1/IC50 in data set [1], in data set [4] and in data set [7] were 5.22, 4.89 and 5.14, respectively. Also, the selectivity ratio in data set [2] is > 16; in data set [5], > 27; in data set [6] it was > 33. Also, the results for the pIC50 in data set [3], in data set [4] and in data set [7] were < 3.70, 4.89 and 5.14, respectively.
Regarding `CC(=O)N/N=C/c1ccc([N+](=O)[O-])o1` [NIHYDRAZONE], the log1/IC50 in data set [1] turned out to be 4.57; in data set [4], 4.86; in data set [7], 4.8. Moreover, the pIC50 in data set [1] was 4.57; in data set [3], < 3.70; in data set [4], 4.86; in data set [7], 4.80. Moreover, the selectivity ratio was > 15 in data set [2], > 13 in data set [5] and > 7 in data set [6].

As a reminder, the pIC50 is the IC50 on a negative log10 scale, so that one unit is a factor of ten.

For the origin of these results see ChEMBL document CHEMBL3414454, “Designing and exploring active N'-[(5-nitrofuran-2-yl) methylene] substituted hydrazides against three Trypanosoma cruzi strains more prevalent in Chagas disease patients” (Eur J Med Chem, 2015).
